{"source": "patent US7842280B2", "about": "“Flexibly labeling peptides” (Case Western Reserve University, priority 2006, dated 2010)", "origin": "cited, not measured here", "conditions": "Gd^3+-DOTA used in clinical MRI studies; comparison value; cited from earlier work", "data": [{"compound": "O=C([O-])CN1CCN(CC(=O)[O-])CCN(CC(=O)[O-])CCN(CC(=O)[O-])CC1.[Gd+3]", "note": "[Gd^3+-DOTA]", "values": [{"measurement": "relaxivity", "value": 3.83, "unit": "m mM^−1 sec^−1"}]}]}
